Data published in patent US20110092544A1, “FUNGICIDAL PYRIDINES” (E.I. DU PONT DE nemours and company, priority 2008, published 2011).

Tests used:
Format in all cases: in vivo
[1] = test system: Alternaria solani; test: Test E: tomato early blight, preventive spray on tomato seedlings, visual disease rating
Source text: (§1) General protocol for preparing test suspensions for Tests A-H: The test compounds were first dissolved in acetone in an amount equal to 3% of the final volume and then suspended at the desired concentration (in ppm) in acetone and purified water (50/50 mix) containing 250 ppm of the surfactant Trem® 014 (polyhydric alcohol esters). The resulting test suspensions were then used in tests A-H. Spraying a 200 ppm test suspension to the point of run-off on the test plants was the equivalent of a rate of 500 g/ha.
The test suspension was sprayed to the point of run-off on tomato seedlings. The following day the seedlings were inoculated with a spore suspension of Alternaria solani (the causal agent of tomato early blight) and incubated in a saturated atmosphere at 27° C. for 48 h, and then moved to a growth chamber at 20° C. for 5 days, after which time disease ratings were visually made.
(§2) Results for Tests A-H are given in Table A. In the table, a rating of 100 indicates 100% disease control and a rating of 0 indicates no disease control (relative to the controls). A dash (-) indicates no test results. All results are for compounds tested at 200 ppm except where the compound number is followed by “*” which indicates the compound was tested at 40 ppm.

[2] = test system: Botrytis cinerea; test: Test F: tomato botrytis, preventive spray on tomato seedlings, visual disease rating
Source text: as §1
The test suspension was sprayed to the point of run-off on tomato seedlings. The following day the seedlings were inoculated with a spore suspension of Botrytis cinerea (the causal agent of tomato botrytis) and incubated in saturated atmosphere at 20° C. for 48 h, and then moved to a growth chamber at 24° C. for 3 additional days, after which time disease ratings were visually made.
as §2

[3] = test system: Septoria tritici; test: Test C: wheat leaf blotch, preventive spray on wheat seedlings, visual disease rating
Source text: as §1
The test suspension was sprayed to the point of run-off on wheat seedlings. The following day the seedlings were inoculated with a spore suspension of Septoria tritici (the causal agent of wheat leaf blotch) and incubated in a saturated atmosphere at 20° C. for 48 h, and moved to a growth chamber at 20° C. for 19 additional days, after which time disease ratings were visually made.
as §2

[4] = test system: Erysiphe graminis f. sp. tritici; test: Test A: wheat powdery mildew, preventive spray on wheat seedlings, visual disease rating
Source text: as §1
The test suspension was sprayed to the point of run-off on wheat seedlings. The following day the seedlings were inoculated with a spore dust of Erysiphe graminis f. sp. tritici (the causal agent of wheat powdery mildew) and incubated in a growth chamber at 20° C. for 8 days, after which time disease ratings were visually made.
as §2

[5] = test system: Septoria nodorum; test: Test D: wheat glume blotch, preventive spray on wheat seedlings, visual disease rating
Source text: as §1
The test suspension was sprayed to the point of run-off on wheat seedlings. The following day the seedlings were inoculated with a spore suspension of Septoria nodorum (the causal agent of wheat glume blotch) and incubated in a saturated atmosphere at 20° C. for 48 h, and then moved to a growth chamber at 20° C. for 7 days, after which time disease ratings were visually made.
as §2

[6] = test system: Puccinia recondite f. sp. tritici; test: Test B: wheat leaf rust, preventive spray on wheat seedlings, visual disease rating
Source text: as §1
The test suspension was sprayed to the point of run-off on wheat seedlings. The following day the seedlings were inoculated with a spore suspension of Puccinia recondite f. sp. tritici (the causal agent of wheat leaf rust) and incubated in a saturated atmosphere at 20° C. for 24 h, and then moved to a growth chamber at 20° C. for 7 days, after which time disease ratings were visually made.
as §2

[7] = 200 ppm, 100 = 100% disease control, 0 = no control
[8] = 40 ppm (compound number followed by *)

Structure (SMILES) | Test E rating (% disease control) [1, 7] | Test F rating (% disease control) [2, 7] | Test C rating (% disease control) [3, 7] | Test A rating (% disease control) [4, 7] | Test D rating (% disease control) [5, 7] | Test B rating (% disease control) [6, 7] | Test E rating (% disease control) [1, 8] | Test F rating (% disease control) [2, 8] | Test C rating (% disease control) [3, 8] | Test A rating (% disease control) [4, 8] | Test D rating (% disease control) [5, 8] | Test B rating (% disease control) [6, 8] | other results
COc1cc(OC)cc(-c2c(Cn3cccn3)cnc(C)c2-c2c(F)cc(F)cc2F)c1 [Compound 97] | 100% | 99% | 95% | 100% | 100% | 100% | – | – | – | – | – | – | –
CCOC(=O)c1cnc(C)c(-c2c(F)cc(OC)cc2F)c1-c1cc(OC)cc(OC)c1 [Compound 70] | 79% | 97% | 93% | 94% | 0% | 95% | – | – | – | – | – | – | –
Cc1cnc(C)c(-c2c(F)cccc2F)c1-c1ccc(Cl)cc1 [Compound 144] | – | – | – | – | – | – | 0% | 45% | 0% | 0% | 0% | 0% | –
COc1cc(OC)c(Cl)c(-c2c(-c3ccccc3F)cnc(C)c2-c2ccc(F)cc2)c1 [Compound 126] | – | – | – | – | – | – | 97% | 100% | 99% | 90% | 100% | 100% | –
COc1cc(OC)cc(-c2c(C(C)C#N)cnc(C)c2-c2c(F)cc(F)cc2F)c1 (centres unmarked) [Compound 125] | – | – | – | – | – | – | 99% | 100% | 96% | 96% | 90% | 99% | –
COc1cc(OC)cc(-c2c(C(C)C)cnc(C)c2-c2c(F)ccc(F)c2F)c1 [Compound 78] | – | – | – | – | – | – | 96% | – | 92% | 100% | 0% | 99% | –
COc1cc(OC)cc(-c2c(C3CCSCC3)cnc(C)c2-c2ccc(F)cc2)c1 [Compound 84] | – | – | – | – | – | – | 0% | 49% | 96% | 96% | 0% | 98% | –
COc1cc(OC)cc(-c2c(C(C)=O)cnc(C)c2-c2c(F)cc(OC)cc2F)c1 [Compound 71] | 100% | 99% | 95% | 98% | 81% | 100% | – | – | – | – | – | – | –
COc1cc(OC)cc(-c2c(-c3ccc(F)cc3)cnc(C)c2-c2c(F)cc(F)cc2F)c1 [Compound 93] | – | – | – | – | – | – | 21% | 98% | 93% | 96% | 0% | 91% | –
COc1cc(OC)cc(-c2c(C(C)(C)O)cnc(C)c2-c2c(F)cc(OC)cc2F)c1 [Compound 72, 5-(2,6-difluoro-4-methoxyphenyl)-4-(3,5-dimethoxyphenyl)-α,α,6-trimethyl-3-pyridinemethanol] | – | – | – | – | – | – | – | – | – | – | – | – | pest or weed control at 200 ppm ([1]; Alternaria solani, 168 h, 200 ppm, 100 = 100% disease control, 0 = no control): 100%; pest or weed control at 200 ppm ([2]; Botrytis cinerea, 120 h, 200 ppm, 100 = 100% disease control, 0 = no control): 99%; pest or weed control at 200 ppm ([3]; Zymoseptoria tritici, 504 h, 200 ppm, 100 = 100% disease control, 0 = no control): 95%; pest or weed control at 200 ppm ([4]; Blumeria graminis, 192 h, 200 ppm, 100 = 100% disease control, 0 = no control): 100%; pest or weed control at 200 ppm ([5]; Parastagonospora nodorum, 216 h, 200 ppm, 100 = 100% disease control, 0 = no control): 100%; pest or weed control at 200 ppm ([6]; 192 h, 200 ppm, 100 = 100% disease control, 0 = no control): 100%
CCOC(=O)c1cnc(C)c(-c2c(F)ccc(F)c2F)c1-c1cc(OC)cc(OC)c1 [Compound 66] | 99% | 95% | 98% | 99% | 0% | 98% | – | – | – | – | – | – | –
CCC(O)(CC)c1cnc(C)c(-c2c(F)cc(F)cc2F)c1-c1cc(OC)cc(OC)c1 [Compound 98] | 9% | 93% | 92% | 86% | 0% | 92% | – | – | – | – | – | – | –
COc1cc(OC)cc(-c2c(-c3c(F)cc(F)cc3F)cnc(Cl)c2-c2c(F)cc(F)cc2F)c1 [Compound 80] | 64% | 0% | 57% | 95% | 0% | 97% | – | – | – | – | – | – | –
COc1cc(OC)cc(-c2c(-c3ccc(F)cc3)cnc(C)c2-c2ccc(F)cc2)c1 [Compound 88] | – | – | – | – | – | – | 0% | 99% | 77% | 58% | 0% | 53% | –
COc1cc(OC)cc(-c2c(C=O)cnc(C)c2-c2c(F)ccc(OC)c2F)c1 [Compound 113] | – | – | – | – | – | – | 9% | 79% | 76% | 0% | 0% | 89% | –
COc1cc(OC)cc(-c2c(C(C)(C)OC(C)=O)cnc(C)c2-c2c(F)cc(F)cc2F)c1 [Compound 102] | 91% | 98% | 97% | 98% | 0% | 92% | – | – | – | – | – | – | –
COc1cc(OC)cc(-c2c(C(C)(C)O)cnc(C)c2-c2c(F)ccc(F)c2F)c1 [Compound 69] | 100% | 91% | 94% | 99% | 86% | 100% | – | – | – | – | – | – | –
